Results published in ChEMBL document CHEMBL1201862, “PubChem BioAssay data set” (2004).
Calls of active or inactive are those of the source.

Columns and labels:
[1] = inhibitors of PGC1a acetylation in cells, dose response, cell-based, cherry-picked samples (AID 720514); type: functional;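 also: potency may reflect raised or lowered acetylation signal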
[2] = molecular target: T1, Small ubiquitin-related modifier 1 (Homo sapiens, UniProt P63165); test: inhibitors of SUMO1 partner interactions, dose response, biochemical, FRET (AID 624383); type: functional; conditions: read-out: IC50_Mean
[3] = molecular target: T1, Small ubiquitin-related modifier 1; test: inhibitors of SUMO1 peptide binding, dose response, biochemical, fluorescence polarization, uHTS hits (AID 624382); type: functional; conditions: read-out: IC50_Mean
[4] = StAR promoter reporter inhibition counter-screen, dose response, counter-screen for LRH-1 inverse agonist project, cell-based, luminescence, luciferase reporter (AID 651969); type: functional
Steroidogenic factor 1 = Steroidogenic factor 1 (Homo sapiens, UniProt Q13285); test: Counterscreen for inverse agonists of the liver receptor homolog-1 (LRH-1; NR5A2): Luminescence-based cell-based high throughput dose response assay to identify inverse agonists of the Steroidogenic Factor 1 Nuclear Receptor (SF1; NR5A1).; type: functional
[5] = molecular target: Nuclear receptor subfamily 5 group A member 2 (Homo sapiens, UniProt O00482); type: functional, cell-based;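 also: HEK293T cells transfected with LRH-1 and a StAR promoter luciferase reporter; potency for inhibitors that lower LRH-1 driven reporter light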
cells [6] = type: functional, cell-based
[7] = molecular target: T2, Nuclear receptor subfamily 0 group B member 1 (Homo sapiens, UniProt P51843); type: functional, cell-based;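 also: HEK293T cells transfected with SF-1 and DAX-1 plus StAR promoter luciferase reporter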
T2 sequence (P51843 whole entry): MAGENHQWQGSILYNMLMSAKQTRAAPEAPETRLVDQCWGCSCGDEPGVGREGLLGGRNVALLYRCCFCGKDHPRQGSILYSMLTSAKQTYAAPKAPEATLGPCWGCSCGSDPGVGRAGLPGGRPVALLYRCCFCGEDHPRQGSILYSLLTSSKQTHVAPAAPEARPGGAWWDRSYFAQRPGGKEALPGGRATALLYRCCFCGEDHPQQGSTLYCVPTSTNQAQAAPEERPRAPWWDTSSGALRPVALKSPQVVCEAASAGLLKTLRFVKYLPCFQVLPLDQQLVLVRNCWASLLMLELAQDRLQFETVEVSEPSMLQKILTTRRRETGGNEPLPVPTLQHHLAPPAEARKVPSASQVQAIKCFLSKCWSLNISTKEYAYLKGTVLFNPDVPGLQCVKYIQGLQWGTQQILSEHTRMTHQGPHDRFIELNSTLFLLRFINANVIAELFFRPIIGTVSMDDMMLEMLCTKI

[8] = molecular target: T3, Adenosylmethionine-8-amino-7-oxononanoate aminotransferase (Mycobacterium tuberculosis, UniProt P9WQ81); test: Mycobacterium tuberculosis BioA enzyme inhibitor Measured in Biochemical System Using Plate Reader - 2163-02_Inhibitor_Dose_CherryPick_Activity.; type: functional, Mycobacterium tuberculosis UT205
T3 sequence (P9WQ81 whole entry): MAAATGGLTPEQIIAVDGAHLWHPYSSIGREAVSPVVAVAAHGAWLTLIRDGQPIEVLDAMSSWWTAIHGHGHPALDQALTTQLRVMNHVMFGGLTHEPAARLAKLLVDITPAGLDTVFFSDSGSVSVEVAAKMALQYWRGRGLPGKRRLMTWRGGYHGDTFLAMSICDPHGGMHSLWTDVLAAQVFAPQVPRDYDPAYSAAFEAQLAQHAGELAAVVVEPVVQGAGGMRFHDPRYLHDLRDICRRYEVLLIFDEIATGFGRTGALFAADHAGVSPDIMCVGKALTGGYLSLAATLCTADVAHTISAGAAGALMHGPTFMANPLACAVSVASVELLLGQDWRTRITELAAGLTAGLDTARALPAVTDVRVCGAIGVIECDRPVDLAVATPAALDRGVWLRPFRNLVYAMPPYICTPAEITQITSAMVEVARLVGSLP

[9] = molecular target: T4, Trace amine-associated receptor 1 (Homo sapiens, UniProt Q96RJ0); test: Counterscreen for agonists of the human trace amine associated receptor 1 (hTAAR1): Fluorescence-based cell-based high throughput dose response assay to identify hTAAR1 agonist that also desensitize TAAR1 receptor response.; type: functional
T4 sequence (Q96RJ0 whole entry): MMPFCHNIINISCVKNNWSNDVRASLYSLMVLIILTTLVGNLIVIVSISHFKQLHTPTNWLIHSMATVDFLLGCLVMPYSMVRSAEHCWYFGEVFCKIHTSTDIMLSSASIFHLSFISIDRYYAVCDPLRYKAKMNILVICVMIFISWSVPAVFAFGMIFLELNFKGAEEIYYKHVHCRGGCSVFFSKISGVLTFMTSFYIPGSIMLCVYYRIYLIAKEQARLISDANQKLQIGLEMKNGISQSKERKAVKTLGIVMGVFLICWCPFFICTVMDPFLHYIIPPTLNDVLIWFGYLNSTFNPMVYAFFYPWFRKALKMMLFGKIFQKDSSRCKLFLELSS

cells [10] = type: functional, cell-based; remark: listed apart in the source
cells [11] = type: functional, cell-based; remark: listed apart in the source
[12] = molecular target: T4, Trace amine-associated receptor 1; test: Fluorescence-based cell-based high throughput dose response assay to identify agonists of the human trace amine associated receptor 1 (TAAR1).; type: functional
Paired box protein Pax-8 = Paired box protein Pax-8 (Homo sapiens, UniProt Q06710); test: inhibitors of PAX8-driven TPO luciferase reporter, dose response, RMG-I cells, cherry-pick (AID 687027); type: functional, cell-based;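 also: luciferase reporter driven by Pax8 target thyroperoxidase promoter measured by SteadyGlo luminescence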
[13] = cytotoxicity in OVCAR8 ovarian cancer cells, dose response, PAX8 project, cell-based, plate reader, dry powder samples (AID 743197); type: functional; conditions: OVCAR-8
[14] = molecular target: T5, Rac GTPase-activating protein 1 (Homo sapiens, UniProt Q9H0H5); test: MgcRacGAP GTPase-activating activity inhibitors, confirmation, biochemical, ADP Hunter fluorescence, primary and confirmatory (AID 624330); type: functional
T5 sequence (Q9H0H5 whole entry): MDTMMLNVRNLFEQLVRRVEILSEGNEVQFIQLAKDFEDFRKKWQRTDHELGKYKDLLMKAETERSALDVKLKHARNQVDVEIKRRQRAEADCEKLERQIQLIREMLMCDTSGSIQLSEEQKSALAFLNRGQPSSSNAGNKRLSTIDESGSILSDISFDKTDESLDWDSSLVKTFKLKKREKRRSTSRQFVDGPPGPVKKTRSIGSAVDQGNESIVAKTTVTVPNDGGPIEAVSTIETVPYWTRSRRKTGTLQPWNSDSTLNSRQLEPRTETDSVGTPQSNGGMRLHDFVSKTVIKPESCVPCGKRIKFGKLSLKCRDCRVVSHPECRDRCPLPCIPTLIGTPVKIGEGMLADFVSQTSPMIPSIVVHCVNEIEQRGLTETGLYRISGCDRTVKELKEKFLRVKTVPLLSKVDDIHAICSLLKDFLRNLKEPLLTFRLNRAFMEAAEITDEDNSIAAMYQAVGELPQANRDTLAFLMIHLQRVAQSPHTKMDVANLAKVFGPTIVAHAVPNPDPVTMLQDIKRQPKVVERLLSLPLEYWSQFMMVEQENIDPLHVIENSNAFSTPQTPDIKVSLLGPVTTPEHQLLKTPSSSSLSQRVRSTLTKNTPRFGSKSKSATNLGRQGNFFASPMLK

Nonstructural protein 1 = Nonstructural protein 1 (Influenza A virus, UniProt Q194T2); type: functional, Influenza A virus (A/California/07/2009(H1N1))
[15] = HeLa cell cytotoxicity, dose response, cytotoxicity control for MgcRacGAP inhibitor project (AID 624300); type: functional
[16] = molecular target: T6, DNA repair protein RAD52 homolog (Homo sapiens, UniProt P43351); type: functional, biochemical
T6 sequence (P43351 whole entry): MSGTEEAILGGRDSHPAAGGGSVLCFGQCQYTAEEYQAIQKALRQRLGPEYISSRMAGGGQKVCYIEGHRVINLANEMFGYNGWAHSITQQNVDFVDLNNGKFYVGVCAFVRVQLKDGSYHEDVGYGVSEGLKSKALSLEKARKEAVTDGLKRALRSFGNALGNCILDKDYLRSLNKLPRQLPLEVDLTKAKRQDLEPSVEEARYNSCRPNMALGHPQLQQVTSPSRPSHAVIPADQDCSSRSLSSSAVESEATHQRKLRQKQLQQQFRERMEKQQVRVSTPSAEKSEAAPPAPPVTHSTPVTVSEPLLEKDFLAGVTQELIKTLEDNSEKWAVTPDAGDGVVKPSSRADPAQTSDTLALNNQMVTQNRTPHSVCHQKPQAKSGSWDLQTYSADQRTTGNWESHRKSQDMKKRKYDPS

[17] = microbe, parasite or virus in culture; type: functional; conditions: Mycobacterium tuberculosis
Fatty acid synthase [18] = molecular target: T7, Fatty acid synthase (Homo sapiens, UniProt P49327); test: FAS thioesterase domain inhibitors, dose response, biochemical, kinetic fluorescence intensity (AID 624326); type: functional;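 also: rate of fluorescence rise from hydrolysis of a fluorogenic O-methyl fluorescein ester substrate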
Fatty acid synthase [19] = molecular target: T7, Fatty acid synthase; test: FAS thioesterase domain inhibitors, dose response, biochemical, endpoint fluorescence intensity, uHTS hits (AID 624327); type: functional;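 also: fluorescence from hydrolysis of an O-methyl fluorescein acyl ester substrate by the enzyme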

Chain of Nuclear receptor subfamily 5 group A member 2 (O00482 whole entry): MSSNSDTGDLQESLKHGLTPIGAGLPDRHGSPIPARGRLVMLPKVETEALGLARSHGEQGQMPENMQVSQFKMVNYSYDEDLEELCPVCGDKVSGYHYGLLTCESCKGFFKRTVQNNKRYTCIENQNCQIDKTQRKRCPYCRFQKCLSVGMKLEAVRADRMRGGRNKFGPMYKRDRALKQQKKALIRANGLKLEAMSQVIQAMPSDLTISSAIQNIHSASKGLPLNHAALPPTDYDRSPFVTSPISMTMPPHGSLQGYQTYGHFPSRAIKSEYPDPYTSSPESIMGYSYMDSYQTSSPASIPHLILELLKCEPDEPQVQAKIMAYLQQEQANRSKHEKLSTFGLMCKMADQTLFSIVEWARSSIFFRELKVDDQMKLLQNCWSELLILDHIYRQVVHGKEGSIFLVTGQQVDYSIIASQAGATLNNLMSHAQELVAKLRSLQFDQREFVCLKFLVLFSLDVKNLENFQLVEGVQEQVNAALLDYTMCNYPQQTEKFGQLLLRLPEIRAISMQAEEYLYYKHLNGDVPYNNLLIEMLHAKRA
Chain of Steroidogenic factor 1 (Q13285 whole entry): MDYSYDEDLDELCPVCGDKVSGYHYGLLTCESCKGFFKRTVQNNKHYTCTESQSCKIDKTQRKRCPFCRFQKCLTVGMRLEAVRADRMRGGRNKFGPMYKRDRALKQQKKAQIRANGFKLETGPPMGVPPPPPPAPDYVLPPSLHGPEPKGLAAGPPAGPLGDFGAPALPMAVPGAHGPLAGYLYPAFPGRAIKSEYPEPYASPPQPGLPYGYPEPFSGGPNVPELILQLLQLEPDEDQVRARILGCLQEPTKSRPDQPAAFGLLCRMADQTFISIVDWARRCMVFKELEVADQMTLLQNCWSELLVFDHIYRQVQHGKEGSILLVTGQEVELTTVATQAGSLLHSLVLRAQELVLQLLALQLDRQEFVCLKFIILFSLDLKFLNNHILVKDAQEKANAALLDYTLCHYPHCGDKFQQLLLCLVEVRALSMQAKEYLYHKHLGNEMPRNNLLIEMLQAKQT
T7 sequence (P49327 whole entry, the tested form may be a part): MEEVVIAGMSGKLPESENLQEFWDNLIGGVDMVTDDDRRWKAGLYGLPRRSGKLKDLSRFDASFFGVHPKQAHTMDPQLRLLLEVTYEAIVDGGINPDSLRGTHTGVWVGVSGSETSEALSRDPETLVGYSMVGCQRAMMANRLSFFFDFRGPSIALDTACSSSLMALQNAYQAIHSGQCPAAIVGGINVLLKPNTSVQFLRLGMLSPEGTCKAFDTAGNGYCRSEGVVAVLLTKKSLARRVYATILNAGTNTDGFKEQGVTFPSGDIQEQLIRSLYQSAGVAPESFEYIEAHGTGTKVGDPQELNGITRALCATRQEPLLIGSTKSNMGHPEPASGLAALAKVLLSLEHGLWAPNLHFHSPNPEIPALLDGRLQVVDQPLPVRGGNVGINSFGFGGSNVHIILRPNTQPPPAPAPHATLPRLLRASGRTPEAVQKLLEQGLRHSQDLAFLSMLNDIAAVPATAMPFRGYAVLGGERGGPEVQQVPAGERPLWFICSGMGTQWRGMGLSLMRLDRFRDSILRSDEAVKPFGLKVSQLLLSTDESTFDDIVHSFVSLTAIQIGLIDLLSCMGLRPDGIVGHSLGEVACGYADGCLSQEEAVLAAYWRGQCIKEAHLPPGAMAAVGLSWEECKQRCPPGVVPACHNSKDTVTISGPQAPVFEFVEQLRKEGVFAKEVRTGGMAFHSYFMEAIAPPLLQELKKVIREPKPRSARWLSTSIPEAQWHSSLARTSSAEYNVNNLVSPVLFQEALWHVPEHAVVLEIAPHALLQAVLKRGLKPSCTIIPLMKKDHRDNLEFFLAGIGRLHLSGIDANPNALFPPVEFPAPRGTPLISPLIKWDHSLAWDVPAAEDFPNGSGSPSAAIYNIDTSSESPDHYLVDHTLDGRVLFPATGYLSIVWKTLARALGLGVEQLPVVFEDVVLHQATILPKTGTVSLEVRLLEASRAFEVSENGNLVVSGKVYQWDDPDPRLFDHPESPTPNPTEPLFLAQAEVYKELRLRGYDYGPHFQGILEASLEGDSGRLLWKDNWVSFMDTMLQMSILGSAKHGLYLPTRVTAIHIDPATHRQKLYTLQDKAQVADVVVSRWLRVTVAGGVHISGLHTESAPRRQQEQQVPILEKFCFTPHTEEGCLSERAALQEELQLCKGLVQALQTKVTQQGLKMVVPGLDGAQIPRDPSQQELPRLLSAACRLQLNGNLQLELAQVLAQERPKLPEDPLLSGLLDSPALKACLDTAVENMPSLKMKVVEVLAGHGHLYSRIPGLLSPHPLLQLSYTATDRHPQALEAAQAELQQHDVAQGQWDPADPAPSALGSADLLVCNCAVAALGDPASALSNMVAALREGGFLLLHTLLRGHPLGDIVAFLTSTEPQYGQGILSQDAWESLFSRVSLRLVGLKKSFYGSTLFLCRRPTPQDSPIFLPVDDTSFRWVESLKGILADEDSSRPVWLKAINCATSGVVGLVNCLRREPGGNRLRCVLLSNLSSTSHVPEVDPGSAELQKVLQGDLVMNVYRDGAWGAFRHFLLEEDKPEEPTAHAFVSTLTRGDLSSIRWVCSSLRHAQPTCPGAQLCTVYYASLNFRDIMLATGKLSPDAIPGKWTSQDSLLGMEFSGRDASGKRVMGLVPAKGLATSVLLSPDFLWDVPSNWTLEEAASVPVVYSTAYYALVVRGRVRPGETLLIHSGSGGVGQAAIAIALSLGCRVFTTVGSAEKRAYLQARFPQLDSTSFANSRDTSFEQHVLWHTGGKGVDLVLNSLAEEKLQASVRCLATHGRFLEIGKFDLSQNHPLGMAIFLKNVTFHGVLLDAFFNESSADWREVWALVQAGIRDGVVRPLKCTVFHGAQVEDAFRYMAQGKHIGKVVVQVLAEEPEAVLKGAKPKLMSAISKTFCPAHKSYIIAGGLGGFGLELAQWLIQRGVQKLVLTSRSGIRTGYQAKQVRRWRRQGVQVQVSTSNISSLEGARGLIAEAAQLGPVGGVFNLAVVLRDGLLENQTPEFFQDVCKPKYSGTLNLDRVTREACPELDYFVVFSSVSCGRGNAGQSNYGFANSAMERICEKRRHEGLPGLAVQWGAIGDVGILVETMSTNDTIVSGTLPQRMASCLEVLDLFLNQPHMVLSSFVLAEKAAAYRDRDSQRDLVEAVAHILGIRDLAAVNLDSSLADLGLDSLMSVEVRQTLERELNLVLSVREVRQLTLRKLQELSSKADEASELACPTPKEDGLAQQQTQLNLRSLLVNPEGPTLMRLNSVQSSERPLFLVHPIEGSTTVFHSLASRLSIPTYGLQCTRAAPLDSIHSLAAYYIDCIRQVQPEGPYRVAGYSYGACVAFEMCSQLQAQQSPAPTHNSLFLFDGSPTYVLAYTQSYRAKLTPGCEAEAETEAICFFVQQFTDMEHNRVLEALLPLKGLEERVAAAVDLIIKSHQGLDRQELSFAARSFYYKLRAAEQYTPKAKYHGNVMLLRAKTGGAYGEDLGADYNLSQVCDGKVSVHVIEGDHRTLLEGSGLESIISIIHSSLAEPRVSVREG
T1 sequence (P63165 whole entry): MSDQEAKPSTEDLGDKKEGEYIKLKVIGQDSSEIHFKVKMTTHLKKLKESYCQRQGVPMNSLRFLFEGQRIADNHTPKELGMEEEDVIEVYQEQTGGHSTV
Chain of Paired box protein Pax-8 (Q06710 whole entry): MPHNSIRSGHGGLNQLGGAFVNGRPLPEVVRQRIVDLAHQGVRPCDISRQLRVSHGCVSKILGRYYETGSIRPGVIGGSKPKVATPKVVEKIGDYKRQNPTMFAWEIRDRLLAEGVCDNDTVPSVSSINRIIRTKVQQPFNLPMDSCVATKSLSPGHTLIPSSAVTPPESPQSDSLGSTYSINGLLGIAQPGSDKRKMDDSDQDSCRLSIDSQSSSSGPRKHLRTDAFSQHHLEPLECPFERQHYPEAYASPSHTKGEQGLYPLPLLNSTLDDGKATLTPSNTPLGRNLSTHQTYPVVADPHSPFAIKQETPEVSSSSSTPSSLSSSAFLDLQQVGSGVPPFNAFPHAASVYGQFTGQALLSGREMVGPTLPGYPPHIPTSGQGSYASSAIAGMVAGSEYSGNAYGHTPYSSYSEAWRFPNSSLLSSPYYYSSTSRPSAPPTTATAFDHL
Chain of Nonstructural protein 1 (Q194T2 whole entry): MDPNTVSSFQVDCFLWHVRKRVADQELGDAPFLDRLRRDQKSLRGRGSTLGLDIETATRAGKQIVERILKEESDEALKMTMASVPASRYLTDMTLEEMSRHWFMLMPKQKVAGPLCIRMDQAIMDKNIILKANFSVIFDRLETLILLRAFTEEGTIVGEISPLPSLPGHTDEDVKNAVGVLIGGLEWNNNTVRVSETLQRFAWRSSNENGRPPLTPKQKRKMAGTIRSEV

Compound: COc1cccc(-n2c(S)nnc2-c2cccc(S(=O)(=O)N(C)C)c2)c1
- AC50 [1]: 39 µM (active)

Compound: Cc1ccc(Cn2c(CCNc3nc(-c4ccc(C)cc4)cs3)nc3cc(C(=O)NCCCO)ccc32)cc1
- IC50 [2]: 9.43 µM (active)
- IC50 [3]: > 66.6 µM (inactive)

Compound: CCc1cc(=O)oc2c(C)c(OCC(=O)NCCCN3CCOCC3)ccc12
- IC50 [4]: 35.9 µM (inactive)
- IC50 (Steroidogenic factor 1): 35.9 µM (inactive)
- IC50 [5]: 35.9 µM (inactive)

Compound: COc1ccc(C(CNC(=O)c2ccc(Cl)c(NC(=O)c3cccs3)c2)N2CCCC2)cc1 (centres undefined)
- IC50 (cells [6]): > 67.5 µM (inactive)
- IC50 [7]: > 67.5 µM (inactive)

Compound: CC1(C(=O)NCc2ccc(F)c(F)c2)Cc2c(-c3cccc(C(N)=O)c3)ccnc2O1 (centres undefined)
- AC50 [8]: 0.498 µM (active)

Compound: CCOc1cccc(-c2c(C(=O)N/N=C/c3ccc(C)o3)nnn2-c2nonc2N)c1
- IC50 [9]: 17.2 µM (inactive)
- IC50 (cells [10]): > 29.9 µM (inactive)
- EC50 (cells [11]): 19.4 µM (inactive)
- EC50 [12]: 3.78 µM (active)

Compound: C[C@@H]1CN([C@H](C)CO)C(=O)c2cc(NC(=O)Nc3ccc(F)cc3)ccc2O[C@@H](C)CCCCO[C@@H]1CN(C)Cc1ccc2c(c1)OCO2
- AC50 (Paired box protein Pax-8): 10.9 µM (active)
- AC50 [13]: 58.6 µM (active)

Compound: CCN(CC)CCNc1ccc(C)c2sc3ccc(O)cc3c(=O)c12
- IC50 [14]: 21.8 µM (active)
- IC50 (Nonstructural protein 1): 19.7 µM (active)
- CC50 [15]: 31 µM (active)
- AC50 [16]: 0.655 µM (active)

Compound: O=C(Nc1ccncc1)Nc1ccc(F)cc1
- IC50 [9]: 4.91 µM (active)
- IC50 (cells [10]): > 29.9 µM (inactive)
- EC50 (cells [11]): > 29.9 µM (inactive)
- EC50 [12]: 0.548 µM (active)

Compound: CC(O)(c1cccnc1)c1nc(-c2cccc(C#N)c2)cs1 (centres undefined)
- IC50 [4]: 35.9 µM (inactive)
- IC50 (Steroidogenic factor 1): 15.7 µM (inactive)
- IC50 [5]: 35.9 µM (inactive)

Compound: COc1cccc(C(=O)/C=C2\Sc3ccccc3N2C)c1
- CC50 [17]: > 40 µM (active)

Compound: O=C(Nc1ccc(Cc2ccncc2)cc1)c1cccc([N+](=O)[O-])c1
- IC50 [4]: 35.9 µM (inactive)
- IC50 (Fatty acid synthase [18]): 10.5 µM (active)
- IC50 (Fatty acid synthase [19]): 7.76 µM (active)
- IC50 (Steroidogenic factor 1): 1.33 µM (active)
- IC50 [5]: 35.9 µM (inactive)

Compound: COc1cc(C(=O)c2cc3c(cc2C)OCO3)cc(OC)c1OC
- IC50 (cells [6]): > 67.5 µM (inactive)
- IC50 [7]: > 67.5 µM (inactive)
